Reference: US20230399341A1, “7-PHENYL SUBSTITUTED 2-AMINOQUINAZOLINE INHIBITORS OF HPK1” (MERCK SHARP & DOHME LLC, priority 2020, published 2023)

Molecular target: T1, Human HPK1, catalytic domain (Homo sapiens, UniProt Q92918)
T1 sequence (Q92918 1-346): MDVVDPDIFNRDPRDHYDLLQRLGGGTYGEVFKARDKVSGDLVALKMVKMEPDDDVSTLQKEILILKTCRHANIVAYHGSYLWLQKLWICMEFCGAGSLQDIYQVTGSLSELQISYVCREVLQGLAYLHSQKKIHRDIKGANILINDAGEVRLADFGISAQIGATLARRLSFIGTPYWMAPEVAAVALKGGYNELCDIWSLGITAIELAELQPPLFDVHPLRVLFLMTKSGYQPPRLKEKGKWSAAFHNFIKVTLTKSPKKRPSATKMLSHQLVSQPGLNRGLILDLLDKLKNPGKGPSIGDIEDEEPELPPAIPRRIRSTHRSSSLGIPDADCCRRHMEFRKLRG
Assay: HPK1-SLP76 TR-FRET Assay
Format: biochemical
Details: 75 pM HPK1, ATP 10 uM, SLP76 10 nM, 30 min pre-incubation, 60 min reaction

Structure (SMILES)	IC50 [nM]
COc1cc2c(cc1Nc1ncc3ccc(-c4ccc(NC(C)=O)nc4)cc3n1)CN(C)CC2 [Compound 1-18, N-(5-{2-[(6-methoxy-2-methyl-1,2,3,4-tetrahydroisoquinolin-7-yl)amino]quinazolin-7-yl}pyridin-2-yl)acetamide]	82.2
COc1cc2c(cc1Nc1ncc3ccc(-c4cc(C5(CO)CC5)ccc4OC)cc3n1)CNCC2 [Compound 1-74, [1-(4-methoxy-3-{2-[(6-methoxy-1,2,3,4-tetrahydroisoquinolin-7-yl)amino]quinazolin-7-yl}phenyl)cyclo-propyl]methanol]	143
Cc1c(-c2c(F)c(N)c3cnc(Nc4cc5c(cc4F)CCN(C)C5)nc3c2Cl)cnc2c1NCCO2 [Compound 2-184, (+ and −)-8-chloro-6-fluoro-N~2~-(6-fluoro-2-methyl-1,2,3,4-tetrahydroisoquinolin-7-yl)-7-(8-methyl-2,3-dihydro-1H-pyrido[2,3-b][1,4]oxazin-7-yl)quinazoline-2,5-diamine]	3.67
COc1cc2c(cc1Nc1ncc3ccc(-c4ccncc4)cc3n1)CNCC2 [Compound 1-46, N-(6-methoxy-1,2,3,4-tetrahydroisoquinolin-7-yl)-7-(pyridin-4-yl)quinazolin-2-amine]	59.4
CNC(=O)C1(c2ccc(Nc3ncc4c(N)c(F)c(-c5cnc6c(c5C)NCCO6)cc4n3)cc2)CCC1 [Compound 2-82, 1-(4-((5-amino-6-fluoro-7-(8-methyl-2,3-dihydro-1H-pyrido[2,3-b][1,4]oxazin-7-yl)quinazolin-2-yl)amino)phenyl)-N-methylcyclobutane-1-carboxamide]	0.0309
Cc1c(-c2c(F)c(N)c3cnc(Nc4ccc(CS(=O)(=O)C(C)C)cc4)nc3c2Cl)cnc2c1NCCO2 [Compound 2-133, (+ and −)-8-chloro-6-fluoro-7-(8-methyl-2,3-dihydro-1H-pyrido[2,3-b][1,4]oxazin-7-yl)-N~2~- (4-{[(propan-2-yl)sulfonyl]methyl}phenyl) quinazoline-2,5-diamine]	0.405
Cc1c(-c2cc3nc(Nc4ccc5c(c4)CCN(C)CC5)ncc3c(N)c2F)cnc2c1NCCO2 [Compound 2-119, 6-fluoro-7-(8-methyl-2,3-dihydro-1H-pyrido[2,3-b][1,4]oxazin-7-yl)-N~2~- (3-methyl-2,3,4,5-tetrahydro-1H-3-benzazepin-7-yl)quinazoline-2,5-diamine]	0.038
Cc1c(-c2cc3nc(Nc4ccc(CS(=O)(=O)C(C)C)cc4)ncc3cc2F)cnc2c1NCCO2 [Compound 1-128, 6-fluoro-N-(4-((isopropylsulfonyl)methyl)phenyl)-7-(8-methyl-2,3-dihydro-1H-pyrido[2,3-b][1,4]oxazin-7-yl)quinazolin-2-amine]	0.0828
COc1cc2c(cc1Nc1ncc3ccc(NCc4cnsn4)cc3n1)CN(C)CC2 [Compound 3-63, N~2~-(6-methoxy-2-methyl-1,2,3,4-tetrahydroisoquinolin-7-yl)-N~7-[(1,2,5-thiadiazol-3-yl)-methyl]quinazoline-2,7-diamine]	38.3
CCS(=O)(=O)Cc1ccc(Nc2ncc3c(N)c(F)c(-c4cnc5c(c4C)NCCO5)cc3n2)cc1 [Compound 2-89, N2-(4-((ethylsulfonyl)methyl)phenyl)-6-fluoro-7-(8-methyl-2,3-dihydro-1H-pyrido[2,3-b][1,4]oxazin-7-yl)quinazoline-2,5-diamine]	0.0117
COc1cc2c(cc1Nc1ncc3ccc(-c4ccc5c(c4)CCN5)cc3n1)CNCC2 [Compound 1-87, 7-(2,3-dihydro-1H-indol-5-yl)-N-(6-methoxy-1,2,3,4-tetrahydroisoquinolin-7-yl)quinazolin-2-amine]	49.2
COc1cc2c(cc1Nc1ncc3ccc(-c4ccc(CC#N)cc4)cc3n1)CNCC2 [Compound 1-64, (4-{2-[(6-methoxy-1,2,3,4-tetrahydroisoquinolin-7-yl)amino]quinazolin-7-yl}phenyl)acetonitrile]	82
COc1cc2c(cc1Nc1ncc3ccc(N[C@H]4CC[C@@H](O)CC4)cc3n1)CN(C)CC2 [Compound 3-46, (1s,4s)-4-((2-((6-methoxy-2-methyl-1,2,3,4-tetrahydroiso-quinolin-7-yl)amino)quinazolin-7-yl)amino)cyclohexan-1-ol]	118
COc1cc2c(cc1Nc1ncc3ccc(Oc4ccc(N5CCN(C(C)=O)CC5)cc4)cc3n1)CN(C)CC2 [Compound 4-7, 1-{4-[4-({2-[(6-methoxy-2-methyl-1,2,3,4-tetrahydro-isoquinolin-7-yl)amino]-quinazolin-7-yl}oxy)phen-yl]piperazin-1-yl}ethan-1-one]	224
COc1cc(CS(C)(=O)=O)ccc1Nc1ncc2c(N)c(F)c(-c3cnc4c(c3C)NCCO4)c(Cl)c2n1 (single isomer, unassigned) [Compound 2-99, (+ or −)-8-chloro-6-fluoro-N~2~-{2-methoxy-4-[(methylsulfonyl)methyl]phenyl}-7-(8-methyl-2,3-dihydro-1H-pyrido[2,3-b][1,4]oxazin-7-yl)quinazoline-2,5-diamine]	12.7
Cc1c(-c2cc3nc(Nc4ccc5c(c4)CN(C(C)C)CC5)ncc3c(N)c2F)cnc2c1NCCO2 [Compound 2-76, 6-fluoro-7-(8-methyl-2,3-dihydro-11H-pyrido[2,3-b][1,4]oxazin-7-yl)-N˜2˜-[2-(propan-2-yl)-1,2,3,4-tetrahydroisoquinolin-7-yl]quinazoline-2,5-diamine]	0.0321
COc1cc2c(cc1Nc1ncc3ccc(-c4ccn5ncnc5c4)cc3n1)CN(C)CC2 [Compound 1-16, N-(6-methoxy-2-methyl-1,2,3,4-tetrahydroisoquinolin-7-yl)-7-([1,2,4]triazolo[1,5-a]pyridin-7-yl)quinazolin-2-amine]	154
COc1cc2c(cc1Nc1ncc3ccc(N4CCN(C5CC5)C(=O)C4)cc3n1)CN(C)CC2 [Compound 3-73, 1-cyclopropyl-4-{2-[(6-methoxy-2-methyl-1,2,3,4-tetrahydroiso-quinolin-7-yl)amino]quinazolin-7-yl}piperazin-2-one]	719
Cc1c(-c2c(F)c(N)c3cnc(Nc4ccc5c(c4)CN(C(C)C)CC5)nc3c2Cl)cnc2c1NCCO2 [Compound 2-112, 8-chloro-6-fluoro-N2-(2-isopropyl-1,2,3,4-tetrahydroisoquinolin-7-yl)-7-(8-methyl-2,3-dihydro-1H-pyrido[2,3-b][1,4]oxazin-7-yl)quinazoline-2,5-diamine]	0.816
COc1ccccc1Nc1ncc2c(N)c(F)c(-c3cnc4c(c3C)NCCO4)cc2n1 [Compound 2-71, 6-fluoro-N~2~-(2-methoxyphenyl)-7-(8-methyl-2,3-dihydro-1H-pyrido[2,3-b][1,4]oxazin-7-yl)quinazoline-2,5-diamine]	0.254
COc1cc(CS(C)(=O)=O)ccc1Nc1ncc2c(N)c(F)c(-c3cnc4c(c3C)NCCO4)cc2n1 [Compound 2-50, 6-fluoro-N2-(2-methoxy-4-((methylsulfonyl)methyl)phenyl)-7-(8-methyl-2,3-dihydro-1H-pyrido[2,3-b][1,4]oxazin-7-yl)quinazoline-2,5-diamine]	0.0594
COc1cc2c(cc1Nc1ncc3ccc(-c4ccc5c(c4)CCC(=O)N5)cc3n1)CNCC2 [Compound 1-88, 6-{2-[(6-methoxy-1,2,3,4-tetrahydroisoquinolin-7-yl)amino]quinazolin-7-yl}-3,4-dihydroquinolin-2(1H)-one]	96.9
